Data on one sequence can be found in patent US20110039762A1, “TARGETED ANTIMICROBIAL MOIETIES” (C3 JIAN, INC., priority 2009, published 2011).

Experiment [1] relates to MRSA. Description: MIC (broth microdilution). The class given is cell-based, Methicillin-resistant Staphylococcus aureus. In outline:
(§1)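 MIC determined per NCCLS standard microdilution, with peptide 2-fold dilution series against ˜1×10^5 cfu/mL cells in Mueller-Hinton medium, incubated 18-24 h at 37° C.; ten independent experiments.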

The test system of a further experiment is T. rubrum. Description: MIC (broth microdilution). Format: cell-based, Trichophyton rubrum. In outline:
(§2)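 Peptides are serially diluted 2-fold and added to Mueller-Hinton broth cultures at ˜1×10^5 cfu/mL, then incubated at 37° C. for 18-24 h.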

For another experiment, the system named is A. niger. Description: MIC (broth microdilution). Format: cell-based, Aspergillus niger. The method, boiled down: as §2
In experiment [2] the test system is B. subtilis. Description: MIC (broth microdilution). Format: cell-based, Bacillus subtilis. The method, boiled down: as §1
The test system of experiment [3] is S. epidermidis. The class given is cell-based, Staphylococcus epidermidis. Particulars: S. epidermidis. The method, boiled down: as §1
Experiment [4] relates to C. albicans. Description: MIC (broth microdilution). Format: cell-based, Candida albicans. Here is the method: (§3) Typically, the in vitro antimicrobial activity of antimicrobial agents is tested using standard NCCLS bacterial inhibition assays, or MIC tests (see, National Committee on Clinical Laboratory Standards “Performance Standards for Antimicrobial Susceptibility Testing,” NCCLS Document M100-S5 Vol. 14, No. 16, December 1994; “Methods for dilution antimicrobial susceptibility test for bacteria that grow aerobically-Third Edition,” Approved Standard M7-A3, National Committee for Clinical Standards, Villanova, Pa.).
(§4) Briefly, ˜1×10^5 cfu/mL bacteria were diluted in TH (S. mutans), or Mueller-Hinton (MH) broth (all other organisms) and distributed to 96-well plates. Serially-diluted (2-fold) peptides were then added and the plates incubated at 37° C. for 18-24 h. […] All experiments were conducted 10 times.

Experiment [5] concerns E. faecalis. Put plainly: MIC (broth microdilution). Format: cell-based, Enterococcus faecalis. The method, then:
as §3, §4

Experiment [6] deals with B. subtilis. Description: Kill or inhibit growth/proliferation; morphology, biofilm and growth disruption (Tables 5, 6). Note: test concentration or dose not given here. Format: cell-based, Bacillus subtilis. Further details: key: A: Peptide aggregates; B: Less hyphal formation; Clumps; Diffuse clumps and small polyps; F: Diffuse growth; H: Thin; I: Growth inhibition; Microcolony formation; Rippled; Small polyps; Thick; W: Halo formation on top, microlonies on bottom.

For a further experiment, the system named is C. jeikeium. The experiment is described as above. Format: cell-based, Corynebacterium jeikeium. Further details: key: A: Peptide aggregates; B: Less hyphal formation; Clumps; Diffuse clumps and small polyps; F: Diffuse growth; H: Thin; I: Growth inhibition; Microcolony formation; Rippled; Small polyps; Thick; W: Halo formation on top, microlonies on bottom. Note: test concentration or dose not given here.

Experiment [7] has as its system E. faecalis. Described as above. Format: cell-based, Enterococcus faecalis. Further details: key: A: Peptide aggregates; B: Less hyphal formation; Clumps; Diffuse clumps and small polyps; F: Diffuse growth; H: Thin; I: Growth inhibition; Microcolony formation; Rippled; Small polyps; Thick; W: Halo formation on top, microlonies on bottom.
The subject of experiment [8] is MRSA. The experiment is described as above. The class given is cell-based, Methicillin-resistant Staphylococcus aureus. Further details: key: A: Peptide aggregates; B: Less hyphal formation; Clumps; Diffuse clumps and small polyps; F: Diffuse growth; H: Thin; I: Growth inhibition; Microcolony formation; Rippled; Small polyps; Thick; W: Halo formation on top, microlonies on bottom.

In experiment [9] the test system is S. epidermidis. Described as above. The class given is cell-based, Staphylococcus epidermidis. Further details: key: A: Peptide aggregates; B: Less hyphal formation; Clumps; Diffuse clumps and small polyps; F: Diffuse growth; H: Thin; I: Growth inhibition; Microcolony formation; Rippled; Small polyps; Thick; W: Halo formation on top, microlonies on bottom.
The next experiment concerns S. pneumoniae. The experiment is described as above. Format: cell-based, Streptococcus pneumoniae. Further details: key: A: Peptide aggregates; B: Less hyphal formation; Clumps; Diffuse clumps and small polyps; F: Diffuse growth; H: Thin; I: Growth inhibition; Microcolony formation; Rippled; Small polyps; Thick; W: Halo formation on top, microlonies on bottom. Note: test concentration or dose not given here.
In experiment [10] the test system is C. albicans. Described as above. The class given is cell-based, Candida albicans. Further details: key: A: Peptide aggregates; B: Less hyphal formation; Clumps; Diffuse clumps and small polyps; F: Diffuse growth; H: Thin; I: Growth inhibition; Microcolony formation; Rippled; Small polyps; Thick; W: Halo formation on top, microlonies on bottom.
Another experiment concerns microorganisms. Description: Peptides having multiple activities (targeting/binding, antimicrobial, growth or phenotype altering). From the text:
In certain embodiments, peptides described herein can have multiple activities. Thus for example, a peptide can have both binding/targeting activity and antimicrobial activity. Such peptides can be used, e.g., in a chimeric construct, for any or all of these properties. Thus, for example, a peptide designated “B” in Table 8 can be used as a targeting peptide. If it is also designated G or M it can also be used for antimicrobial activity.
Throughout, for Organism, effect (morphology, biofilm and growth disruption): test concentration or dose not given here.

On to MRFGSLALVAYDSAIKHSWPRPSSVRRLRM [PF-672], for which the MIC entry was “MRSA , 1.56 μM” against MRSA [1]; “T. rubrum, 0.78 μM” with T. rubrum; “A. niger, 3 μM” in the experiment on A. niger; “B. subtilis, 0.78 μM” in the experiment with B. subtilis [2]; “S. epidermidis, 0.39 μM” with S. epidermidis [3]; “C. albicans, 1.56 μM” with C. albicans [4]. In the experiment with E. faecalis [5], the MIC result is “E. faecalis, 3.13 μM”. Also, the “Organism, effect (morphology, biofilm and growth disruption)” value in the experiment with B. subtilis [6] is “B. subtilis (I)”; in the experiment on C. jeikeium, “C. jeikeium (R)”; with E. faecalis [7], “E. faecalis (I)”; in the experiment with MRSA [8] it was “MRSA (I)”; in the experiment with S. epidermidis [9] it was “S. epidermidis (I)”; in the experiment with S. pneumoniae it was “S. pneumoniae (I)”. In addition, in the experiment on C. albicans [10], the “Organism, effect (morphology, biofilm and growth disruption)” value is “C. albicans (I)”. For the same sequence, in the experiment on microorganisms, the Activities result is “G B M”.
